Measurements: PubChem BioAssay (NCI)
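Exposure lasted 48 hours, with cells grown in 96-well plates and compounds tested at five concentrations. GI50 marks 50% less growth. TGI: concentration producing complete growth inhibition.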

Key:
Test in all cases: NCI anticancer screen, dose series, 48 h
786-0 renal = test system: 786-0 renal
A498 renal = test system: A498 renal
A549 NSCLC = test system: A549 NSCLC
ACHN renal = test system: ACHN renal
BT-549 breast = test system: BT-549 breast
CAKI-1 renal = test system: CAKI-1 renal
CCRF-CEM leukemia = test system: CCRF-CEM leukemia
COLO 205 colon = test system: COLO 205 colon
DU-145 prostate = test system: DU-145 prostate
EKVX NSCLC = test system: EKVX NSCLC
HCC-2998 colon = test system: HCC-2998 colon
HCT-116 colon = test system: HCT-116 colon
HCT-15 colon = test system: HCT-15 colon
HL-60(TB) leukemia = test system: HL-60(TB) leukemia
HOP-62 NSCLC = test system: HOP-62 NSCLC
HOP-92 NSCLC = test system: HOP-92 NSCLC
HS 578T breast = test system: HS 578T breast
HT29 colon = test system: HT29 colon
IGROV1 ovarian = test system: IGROV1 ovarian
K-562 leukemia = test system: K-562 leukemia
KM12 colon = test system: KM12 colon
LOX IMVI melanoma = test system: LOX IMVI melanoma
M14 melanoma = test system: M14 melanoma
MALME-3M melanoma = test system: MALME-3M melanoma
MDA-MB-231 breast = test system: MDA-MB-231 breast
MDA-MB-435 = test system: MDA-MB-435
MOLT-4 leukemia = test system: MOLT-4 leukemia
NCI-H226 lung = test system: NCI-H226 lung
NCI-H23 lung = test system: NCI-H23 lung
NCI-H460 lung = test system: NCI-H460 lung
NCI-H522 lung = test system: NCI-H522 lung
NCI/ADR-RES ovarian = test system: NCI/ADR-RES ovarian
OVCAR-3 ovarian = test system: OVCAR-3 ovarian
OVCAR-8 ovarian = test system: OVCAR-8 ovarian
PC-3 prostate = test system: PC-3 prostate
RPMI-8226 leukemia = test system: RPMI-8226 leukemia
RXF 393 renal = test system: RXF 393 renal
SF-268 CNS = test system: SF-268 CNS
SF-295 CNS = test system: SF-295 CNS
SF-539 CNS = test system: SF-539 CNS
SK-MEL-2 melanoma = test system: SK-MEL-2 melanoma
SK-MEL-28 melanoma = test system: SK-MEL-28 melanoma
SK-MEL-5 melanoma = test system: SK-MEL-5 melanoma
SK-OV-3 ovarian = test system: SK-OV-3 ovarian
SN12C renal = test system: SN12C renal
SNB-19 CNS = test system: SNB-19 CNS
SNB-75 CNS = test system: SNB-75 CNS
SR leukemia = test system: SR leukemia
SW-620 colon = test system: SW-620 colon
T-47D breast = test system: T-47D breast
TK-10 renal = test system: TK-10 renal
U251 CNS = test system: U251 CNS
UACC-257 melanoma = test system: UACC-257 melanoma
UACC-62 melanoma = test system: UACC-62 melanoma
UO-31 renal = test system: UO-31 renal

Structure (SMILES): O=S(=O)(Nc1cc(Br)c(O)c2ccccc12)c1ccc(F)cc1
- GI50 (786-0 renal): 3.35 µM
- TGI (786-0 renal): 11.3 µM
- GI50 (A498 renal): 17.3 µM
- TGI (A498 renal): 33.3 µM
- GI50 (A549 NSCLC): 8.3 µM
- TGI (A549 NSCLC): 26.7 µM
- GI50 (ACHN renal): 3.31 µM
- TGI (ACHN renal): 14.1 µM
- GI50 (BT-549 breast): 8.45 µM
- TGI (BT-549 breast): 21.2 µM
- GI50 (CAKI-1 renal): 7.7 µM
- TGI (CAKI-1 renal): 20.5 µM
- GI50 (CCRF-CEM leukemia): 0.76 µM
- TGI (CCRF-CEM leukemia): 8.29 µM
- GI50 (COLO 205 colon): 10.7 µM
- TGI (COLO 205 colon): 29.5 µM
- GI50 (DU-145 prostate): 1.83 µM
- TGI (DU-145 prostate): 3.32 µM
- GI50 (EKVX NSCLC): 2.64 µM
- TGI (EKVX NSCLC): 7.52 µM
- GI50 (HCC-2998 colon): 18.4 µM
- TGI (HCC-2998 colon): 33.4 µM
- GI50 (HCT-116 colon): 2.33 µM
- TGI (HCT-116 colon): 6.44 µM
- GI50 (HCT-15 colon): 2.95 µM
- TGI (HCT-15 colon): 11.3 µM
- GI50 (HL-60(TB) leukemia): 2.61 µM
- TGI (HL-60(TB) leukemia): 6.95 µM
- GI50 (HOP-62 NSCLC): 3.58 µM
- TGI (HOP-62 NSCLC): 18.5 µM
- GI50 (HOP-92 NSCLC): 1.95 µM
- TGI (HOP-92 NSCLC): 4.54 µM
- GI50 (HS 578T breast): 2.75 µM
- TGI (HS 578T breast): 9.98 µM
- GI50 (HT29 colon): 18.2 µM
- TGI (HT29 colon): > 100 µM
- GI50 (IGROV1 ovarian): 2.59 µM
- TGI (IGROV1 ovarian): 5.51 µM
- GI50 (K-562 leukemia): 3.19 µM
- TGI (K-562 leukemia): 8.28 µM
- GI50 (KM12 colon): 6.27 µM
- TGI (KM12 colon): 21.7 µM
- GI50 (LOX IMVI melanoma): 2.07 µM
- TGI (LOX IMVI melanoma): 4.88 µM
- GI50 (M14 melanoma): 2.42 µM
- TGI (M14 melanoma): 6.12 µM
- GI50 (MALME-3M melanoma): 2.03 µM
- TGI (MALME-3M melanoma): 3.84 µM
- GI50 (MDA-MB-231 breast): 2.1 µM
- TGI (MDA-MB-231 breast): 5.5 µM
- GI50 (MDA-MB-435): 1.82 µM
- TGI (MDA-MB-435): 3.3 µM
- GI50 (MOLT-4 leukemia): 2.31 µM
- TGI (MOLT-4 leukemia): 5.33 µM
- GI50 (NCI-H226 lung): 18.3 µM
- TGI (NCI-H226 lung): 38.9 µM
- GI50 (NCI-H23 lung): 2.8 µM
- TGI (NCI-H23 lung): 7.87 µM
- GI50 (NCI-H460 lung): 18.3 µM
- TGI (NCI-H460 lung): 38.7 µM
- GI50 (NCI-H522 lung): 5.23 µM
- TGI (NCI-H522 lung): 83.4 µM
- GI50 (NCI/ADR-RES ovarian): 2.96 µM
- TGI (NCI/ADR-RES ovarian): 8.68 µM
- GI50 (OVCAR-3 ovarian): 2.56 µM
- TGI (OVCAR-3 ovarian): 6.4 µM
- GI50 (OVCAR-8 ovarian): 2.78 µM
- TGI (OVCAR-8 ovarian): 7.87 µM
- GI50 (PC-3 prostate): 2.93 µM
- TGI (PC-3 prostate): 12.9 µM
- GI50 (RPMI-8226 leukemia): 2.94 µM
- TGI (RPMI-8226 leukemia): 20.1 µM
- GI50 (RXF 393 renal): 3.69 µM
- TGI (RXF 393 renal): 14.1 µM
- GI50 (SF-268 CNS): 3.2 µM
- TGI (SF-268 CNS): 12.1 µM
- GI50 (SF-295 CNS): 15.7 µM
- TGI (SF-295 CNS): 29.7 µM
- GI50 (SF-539 CNS): 2.33 µM
- TGI (SF-539 CNS): 5.48 µM
- GI50 (SK-MEL-2 melanoma): 3.42 µM
- TGI (SK-MEL-2 melanoma): 16.2 µM
- GI50 (SK-MEL-28 melanoma): 2.46 µM
- TGI (SK-MEL-28 melanoma): 5.39 µM
- GI50 (SK-MEL-5 melanoma): 1.79 µM
- TGI (SK-MEL-5 melanoma): 3.35 µM
- GI50 (SK-OV-3 ovarian): 14.7 µM
- TGI (SK-OV-3 ovarian): 35.9 µM
- GI50 (SN12C renal): 2.04 µM
- TGI (SN12C renal): 4.36 µM
- GI50 (SNB-19 CNS): 9.35 µM
- TGI (SNB-19 CNS): 28 µM
- GI50 (SNB-75 CNS): 3.57 µM
- TGI (SNB-75 CNS): 17.1 µM
- GI50 (SR leukemia): 4.24 µM
- TGI (SR leukemia): 34.3 µM
- GI50 (SW-620 colon): 2.45 µM
- TGI (SW-620 colon): 7.65 µM
- GI50 (T-47D breast): 2.58 µM
- TGI (T-47D breast): 8.5 µM
- GI50 (TK-10 renal): 18.4 µM
- TGI (TK-10 renal): 32.7 µM
- GI50 (U251 CNS): 2.96 µM
- TGI (U251 CNS): 7.77 µM
- GI50 (UACC-257 melanoma): 1.87 µM
- TGI (UACC-257 melanoma): 3.58 µM
- GI50 (UACC-62 melanoma): 1.92 µM
- TGI (UACC-62 melanoma): 3.88 µM
- GI50 (UO-31 renal): 2.15 µM
- TGI (UO-31 renal): 11.6 µM
